{"source": "patent US7084135B1", "about": "“Prenyl transferase inhibitors” (Societe de Conseils de Recherches et d'Applications …, priority 1998, dated 2006)", "origin": "cited, not measured here", "key": {"[1]": {"tested_on": "DU145 adenocarcinoma", "conditions": "Prostate: DU145 adenocarcinoma, with WT ras"}, "[2]": {"tested_on": "HT29, adenocarcinoma", "conditions": "Colon: HT29, adenocarcinoma with Wild Type ras (WT)"}}}
{"smiles": "CC[C@H](C)[C@@H](COC(Cc1ccccc1)C(=O)N[C@@H](CCS(C)(=O)=O)C(=O)OC(C)C)NC[C@@H](N)CS", "note": "(some centres unmarked) [Compound L744-832]", "values": [{"measurement": "sensitivity of cell line to L744-832", "setting": "[1]", "result": "resistant"}, {"measurement": "sensitivity of cell line to L744-832", "setting": "[2]", "result": "sensitive"}]}
